SMILES strings stand for the structures.

Data on 44 molecules can be found in ChEMBL document CHEMBL1131339 (J Med Chem, 1998).

In test [1] the test system is Melanophore. Kind of test: Effective concentration required to produce 50% of the maximal pigment aggregation in Xenopus laevis dermal melanophore cell line. Format: functional, cell-based, frog.
Test [2] concerns Melanophore. Kind of test: Inhibitory concentration against melatonin-induced pigment aggregation by 50% in Xenopus laevis dermal melanophore cell line. The class given is functional, cell-based, frog.
For test [3], the target named is Melatonin receptor (Gallus gallus, UniProt P49288+P51050+P49285). Kind of test: Binding affinity towards melatonin receptor, determined in chicken brain membranes using [2-125I]melatonin. Format: cell membranes, Membrane.
For test [4], the system named is Melanophore. The experiment in a line: Effective concentration required to produce 50% of the maximal pigment aggregation in Xenopus laevis dermal melanophore cell line; No agonist effect detected at 100 uM. The class given is functional, cell-based, frog.

What is called EC50 is the concentration that produces a half-maximal response. A higher EC50 goes with weaker potency. The term IC50 denotes the concentration that gives 50% inhibition. Consider `CCCC(=O)NC1CCc2[nH]c3ccccc3c2C1` (centres undefined), for which the EC50 in test [1] (Xenopus laevis, Melanophore) stood at 12.6 µM. Moreover, the 50% inhibitory concentration (IC50) result in test [2] was “Not Active”.
As a reminder, the Ki is a measure of affinity in units of concentration, obtained from inhibition or displacement. On to `Cn1c2c(c3cc(OC(F)(F)F)ccc31)C(CNC(=O)C1CCC1)CCC2` (centres undefined), for which the Ki in test [3] worked out at 1.24 µM. Further, the IC50 in test [2] was 41 µM. The EC50 result in test [4] was “Not Active”.
The molecule `CCC(=O)NC1CCc2[nH]c3ccc(OC)cc3c2C1` (centres undefined) displayed an EC50 in test [1] (Xenopus laevis, Melanophore) of 0.007 µM. The IC50 entry in test [2] was “Not Active”.
`CCCC(=O)NCC1CCCCc2c1c1ccccc1n2C` (centres undefined) registered a Ki in test [3] of 0.084 µM. In test [2], this molecule had an IC50 of 53 µM. The EC50 entry in test [4] was “Not Active”.
In test [2], `O=C(NC1CCc2[nH]c3ccccc3c2C1)C(F)(F)F` (centres undefined) gave an IC50 of 43 µM. In addition, in test [4], the half-maximal effective concentration (EC50) entry is on record as “Not Active”.
In test [1] (Xenopus laevis, Melanophore), `COc1ccc2[nH]c3c(c2c1)CC(NC(=O)C(F)(F)F)CC3` (centres undefined) came in with an EC50 of 0.032 µM. Moreover, the IC50 result in test [2] was “Not Active”.
`CCCC(=O)NCC1CCCc2c1c1cc(OC)ccc1n2C` (centres undefined): in test [3], the Ki was determined as 0.000378 µM. Besides, the EC50 in test [1] (Xenopus laevis, Melanophore) came to 0.00044 µM. In addition, the IC50 result in test [2] is on record as “Not Active”.
For the molecule `CCC(=O)NCC1CCCc2c1c1cc(CC)ccc1n2C` (centres undefined), in test [3], the inhibition constant Ki came to 0.0275 µM. It took 0.305 µM to reach a half-maximal effect in test [1] (Xenopus laevis, Melanophore) (EC50). Moreover, in test [2], the IC50 is 62 µM.
In test [3], `COc1ccc2[nH]c3c(c2c1)CC(NC(=O)C1CC1)CC3` (centres undefined) returned a Ki of 0.143 µM. The EC50 in test [1] (Xenopus laevis, Melanophore) turned out to be 0.195 µM. Further, the IC50 result in test [2] is “Not Active”.
As to `COc1ccc2c(c1)c1c(n2C)CCCCC1CNC(C)=O` (centres undefined), the Ki in test [3] came to 0.024 µM. Moreover, in test [1] (Xenopus laevis, Melanophore), the EC50 worked out at 0.258 µM. The IC50 in test [2] came to 10 µM.
`CC(=O)NCC1CCCc2c1c1cc(OC(F)(F)F)ccc1n2C` (centres undefined): the Ki in test [3] worked out at 0.1417 µM. In test [1] (Xenopus laevis, Melanophore), the EC50 turned out to be 2.03 µM. This molecule also came in with an IC50 in test [2] of 42 µM.
The corresponding values for `COc1ccc2c(c1)c1c(n2C)CCCC1CNC(=O)C1CC1` (centres undefined) are 0.03 µM, 0.119 µM and 48 µM.
In the case of `CCC(=O)NCC1CCCc2c1c1cc(OC(F)(F)F)ccc1n2C` (centres undefined), in test [3], the Ki is 0.0402 µM. In test [1] (Xenopus laevis, Melanophore), this molecule returned an EC50 of 0.733 µM. In test [2], this molecule came in with an IC50 of 6 µM.
The molecule `CC(=O)NCC1CCCc2c1c1cc(Cl)ccc1n2C` (centres undefined) yielded a Ki in test [3] of 0.00212 µM. Further, the EC50 in test [1] (Xenopus laevis, Melanophore) was 0.0052 µM. Moreover, in test [2], the IC50 result is “Not Active”.
`CC(=O)NCC1CCCc2c1c1cc(C)ccc1n2C` (centres undefined) returned a Ki in test [3] of 0.0161 µM. Moreover, a half-maximal effect in test [1] (Xenopus laevis, Melanophore) (EC50) was put at 0.108 µM. Moreover, the IC50 result in test [2] is recorded as “Not Active”.
In test [1] (Xenopus laevis, Melanophore), `CCCC(=O)NC1CCc2[nH]c3ccc(OC)cc3c2C1` (centres undefined) showed an EC50 of 0.025 µM. Also, in test [2], the IC50 result was “Not Active”.
`CCC(=O)NCC1CCCc2c1c1cc(OC)ccc1n2C` (centres undefined) showed a Ki in test [3] of 0.00144 µM. The EC50 in test [1] (Xenopus laevis, Melanophore) turned out to be 0.00031 µM. The IC50 entry in test [2] is “Not Active”.
Take `Cn1c2c(c3cc(Cl)ccc31)C(CNC(=O)C1CC1)CCC2` (centres undefined): the Ki in test [3] worked out at 0.1316 µM. The molecule also yielded an EC50 in test [1] (Xenopus laevis, Melanophore) of 1.51 µM. The molecule further displayed an IC50 in test [2] of 33 µM.
As to `CCC(=O)NCC1CCCc2c1c1cc(C)ccc1n2C` (centres undefined), the Ki in test [3] is 0.00766 µM. The EC50 in test [1] (Xenopus laevis, Melanophore) amounted to 0.128 µM. Also, in test [2], the IC50 entry was “Not Active”.
Take `CCC(=O)NC1CCc2[nH]c3ccccc3c2C1` (centres undefined): in test [1] (Xenopus laevis, Melanophore), the half-maximal effective concentration (EC50) turned out to be 3.27 µM. The IC50 entry in test [2] was “Not Active”.
As for `CCC(=O)NCC1CCCc2c1c1ccccc1n2C` (centres undefined), the Ki in test [3] came to 0.204 µM. This molecule displayed an EC50 in test [1] (Xenopus laevis, Melanophore) of 0.862 µM. Besides, in test [2], the IC50 result is “Not Active”.
On to `O=C(CBr)NC1CCc2[nH]c3ccccc3c2C1` (centres undefined), for which, in test [2], the IC50 was found to be 39 µM. Besides, in test [4], the EC50 entry is “Not Active”.
In turn, `CCCC(=O)NCC1CCCc2c1c1ccccc1n2C` (centres undefined) returned a Ki in test [3] of 0.215 µM. This molecule also came in with an EC50 in test [1] (Xenopus laevis, Melanophore) of 0.966 µM. Further, the IC50 entry in test [2] is “Not Active”.
In test [3], `CC(=O)NCC1CCc2c1c1ccccc1n2C` (centres undefined) yielded a Ki of 0.516 µM. Besides, in test [1] (Xenopus laevis, Melanophore), a half-maximal response (EC50) required 6.36 µM. Moreover, the IC50 entry in test [2] is recorded as “Not Active”.
In turn, `CC(=O)NCC1CCCc2c1c1ccccc1n2C` (single isomer, unassigned; (-)) displayed a Ki in test [3] of 0.04 µM. The same molecule showed an EC50 in test [1] (melanophore) of 0.189 µM.
In turn, `CCC(=O)NCC1CCc2c1c1cc(OC)ccc1n2C` (single isomer, unassigned; (-)) yielded a Ki in test [3] of 0.0017 µM. The EC50 in test [1] (melanophore) came to 0.0034 µM.
In test [3], `CCC(=O)NCC1CCc2c1c1cc(OC)ccc1n2C` (stereo in doubt; 10i) registered a Ki of 0.016 µM. In addition, in test [1] (melanophore), the concentration giving a half-maximal response (EC50) amounted to 0.408 µM.
`COc1ccc2c(c1)c1c(n2C)CCCC1CNC(=O)C1CCC1` (centres undefined): the Ki in test [3] was 0.271 µM. Besides, the concentration giving a half-maximal response (EC50) in test [1] (Xenopus laevis, Melanophore) worked out at 0.139 µM. For the same molecule, in test [2], the IC50 result was “Not Active”.
With `COc1ccc2c(c1)c1c(n2C)CCCC1CNC(C)=O` (stereo in doubt; 9g), the EC50 in test [1] (melanophore) was 0.0007 µM. In addition, in test [2], the IC50 entry is reported as “Not Active”.
In test [1] (Xenopus laevis, Melanophore), `COc1ccc2[nH]cc(CCNC(C)=O)c2c1` [MELATONIN] displayed a concentration giving a half-maximal response (EC50) of 0.00023 µM. Besides, in test [2], the IC50 result is reported as “Not Active”.
`CC(=O)NC1CCc2[nH]c3ccccc3c2C1` (centres undefined) came in with a half-inhibitory concentration (IC50) in test [2] of 64 µM. In addition, the EC50 result in test [4] is “Not Active”.
Molecule `COc1ccc2[nH]c3c(c2c1)CC(NC(=O)CBr)CC3` (centres undefined) registered an EC50 in test [1] (Xenopus laevis, Melanophore) of 0.032 µM. Further, it took 11 µM to reach half-maximal inhibition in test [2] (IC50).
For the molecule `Cc1ccc2c(c1)c1c(n2C)CCCC1CNC(=O)C1CCC1` (centres undefined), the Ki in test [3] worked out at 0.555 µM. In test [1] (Xenopus laevis, Melanophore), a half-maximal response (EC50) required 1.45 µM. Further, in test [2], the IC50 result is “Not Active”.
In the case of `COc1ccc2c(c1)c1c(n2C)CCCC1CNC(C)=O` (single isomer, unassigned; (+)), the Ki in test [3] was found to be 0.0484 µM. In test [1] (melanophore), this molecule showed an EC50 of 0.0148 µM.
The corresponding values for `CCC(=O)NCC1CCCCc2c1c1cc(OC)ccc1n2C` (stereo in doubt; 11i(-)) are 0.0065 µM and 0.118 µM.
Take `COc1ccc2[nH]c3c(c2c1)CC(NC(C)=O)CC3` (centres undefined): the EC50 in test [1] (Xenopus laevis, Melanophore) was determined as 0.032 µM. Also, the IC50 result in test [2] is recorded as “Not Active”.
In test [3], `COc1ccc2c(c1)c1c(n2C)CCC1CNC(C)=O` (centres undefined) had a Ki of 0.161 µM. For the same molecule, the EC50 in test [1] (Xenopus laevis, Melanophore) is 0.423 µM. In addition, the IC50 entry in test [2] was “Not Active”.
In test [3], `COc1ccc2c(c1)c1c(n2C)CCCC1CNC(C)=O` (single isomer, unassigned; (-)) gave a Ki of 0.000372 µM. The EC50 in test [1] (melanophore) is 0.0003 µM.
With `CC(=O)NCC1CCCc2c1c1ccccc1n2C` (stereo in doubt; 9a), the Ki in test [3] was found to be 0.227 µM. In test [1] (melanophore), this molecule registered a 50% effective concentration (EC50) of 0.599 µM. The IC50 entry in test [2] is given as “Not Active”.
In the case of `COc1ccc2c(c1)c1c(n2C)CCCC1CNC(=O)C(F)(F)F` (centres undefined), the Ki in test [3] was found to be 0.00198 µM. Also, in test [1] (Xenopus laevis, Melanophore), a half-maximal effect (EC50) was put at 0.0021 µM. Further, the IC50 entry in test [2] was “Not Active”.
The molecule `CCC(=O)NCC1CCc2c1c1cc(OC)ccc1n2C` (single isomer, unassigned; (+)) displayed a Ki in test [3] of 0.243 µM. It took 0.789 µM to reach a half-maximal effect in test [1] (melanophore) (EC50). Further, the IC50 result in test [2] is reported as “Not Active”.
As for `CCCC(=O)NCC1CCc2c1c1cc(OC)ccc1n2C` (centres undefined), the Ki in test [3] came out at 0.023 µM. Further, the response in test [1] (Xenopus laevis, Melanophore) was half-maximal at 0.335 µM (EC50). This molecule also registered an IC50 in test [2] of 14 µM.
The molecule `COc1ccc2c(c1)c1c(n2C)CCCCC1CNC(=O)C1CC1` (centres undefined) came in with a Ki in test [3] of 0.0447 µM. In test [1] (Xenopus laevis, Melanophore), this molecule yielded an EC50 of 0.47 µM. The molecule also gave an IC50 in test [2] of 43 µM.
Molecule `CCCCC(=O)NCC1CCCc2c1c1cc(OC)ccc1n2C` (centres undefined) showed a Ki in test [3] of 0.082 µM. Also, the EC50 in test [1] (Xenopus laevis, Melanophore) stood at 0.132 µM. Besides, the IC50 result in test [2] is listed as “Not Active”.
